Test systems include IGROV1 ovarian; U251 CNS; NCI-H522 lung; DU-145 prostate; OVCAR-3 ovarian; OVCAR-8 ovarian; CCRF-CEM leukemia; EKVX NSCLC; A498 renal; SF-268 CNS.
Common to all, as to test: DTP human tumour cell line panel, 48 h

“And” between values parts separate entries of the source, which are not always exact repeats. Equal entries are not always repeated.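 In this assay, cells in 96-well plates receive the compound at five concentrations for 48 hours. Endpoints are linearly interpolated between the surrounding concentrations. The concentration for 50% growth inhibition is given as GI50. TGI: total growth inhibition.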

In the case of `COC(=O)c1cc2oc(/C=C3/SC(=S)N(N)C3=O)cc2n1Cc1ccccc1`, the GI50 with IGROV1 ovarian was 1.35 µM; in the test on U251 CNS, 3.97 µM; in the test with NCI-H522 lung it was 7.81 µM; in the test with DU-145 prostate it was 3.59 µM; with OVCAR-3 ovarian, 2.17 µM; in the test with OVCAR-8 ovarian it was 3.24 µM. Further, the GI50 in the test with CCRF-CEM leukemia is more than 100 µM; in the test on EKVX NSCLC, 7.17 µM; with A498 renal, 2.16 µM; in the test on SF-268 CNS, 2.22 µM. Besides, the concentration for total growth inhibition (TGI) was determined as 4.82 µM in the test with IGROV1 ovarian; 14 µM with U251 CNS; 21.8 µM in the test with NCI-H522 lung; 15.7 µM in the test on DU-145 prostate; 6.73 µM in the test with OVCAR-3 ovarian; 22.7 µM with OVCAR-8 ovarian. Further, the TGI in the test with CCRF-CEM leukemia was more than 100 µM; with EKVX NSCLC it was more than 81.8 µM; with A498 renal it was 6.48 µM; with SF-268 CNS it was 7.73 µM.

For `Cn1cc(-c2nc(-c3c[nH]c4ncccc34)cs2)c2ccccc21`, the GI50 was 6.66 µM in the test with IGROV1 ovarian; 24.8 µM in the test on U251 CNS; 12.3 µM in the test with NCI-H522 lung; 62.8 µM with DU-145 prostate; 4.46 µM in the test on OVCAR-3 ovarian; 38.2 µM with OVCAR-8 ovarian. Moreover, the GI50 in the test on CCRF-CEM leukemia was 24.1 µM; with EKVX NSCLC, 0.368 µM; in the test with A498 renal, 34.5 µM; in the test with SF-268 CNS it was 89.4 µM. Besides, the TGI in the test with IGROV1 ovarian was more than 100 µM; in the test on U251 CNS, more than 100 µM; in the test on NCI-H522 lung, more than 100 µM; with DU-145 prostate, more than 100 µM; in the test with OVCAR-3 ovarian it was 24.7 µM; with OVCAR-8 ovarian, more than 100 µM. The TGI in the test on CCRF-CEM leukemia was more than 100 µM; in the test on EKVX NSCLC it was 61.1 µM; in the test with A498 renal, more than 100 µM; with SF-268 CNS, more than 100 µM.

Consider `CC1(C)N=C(N)N=C(N)N1c1ccc(Cl)cc1`, for which the GI50 in the test with IGROV1 ovarian was 2.27 µM; in the test with U251 CNS it was 1.19 µM; in the test with NCI-H522 lung, 14.6 µM; with DU-145 prostate, 5.35 µM; in the test on OVCAR-3 ovarian it was 11.3 µM; in the test on OVCAR-8 ovarian, 2.17 µM. The GI50 is more than 100 µM in the test on CCRF-CEM leukemia, 0.763 µM in the test with EKVX NSCLC, more than 100 µM in the test with A498 renal and 0.688 µM in the test on SF-268 CNS. Besides, the TGI in the test on IGROV1 ovarian, in the test with U251 CNS, in the test with NCI-H522 lung, in the test with DU-145 prostate, in the test with OVCAR-3 ovarian and in the test on OVCAR-8 ovarian was more than 100 µM in each case. Further, the TGI in the test on CCRF-CEM leukemia, in the test with EKVX NSCLC, with A498 renal and with SF-268 CNS was more than 100 µM in each case.

Regarding `CC(C)(C)c1cc(NC(=O)Nc2ccc(-c3cn4c(n3)sc3cc(OCCN5CCOCC5)ccc34)cc2)no1`, the GI50 in the test with IGROV1 ovarian was 9.38 µM and 2.33 µM and > 10 µM; with U251 CNS it was 0.941 µM and 0.511 µM and 2.72 µM; in the test on NCI-H522 lung, 0.9 µM and 0.937 µM and 3.32 µM; in the test on DU-145 prostate, 10.7 µM and 2.28 µM and 9.69 µM; in the test with OVCAR-3 ovarian, 6.61 µM and 1.54 µM and 6.76 µM; in the test with OVCAR-8 ovarian, 1.14 µM and 0.544 µM and 1.51 µM. In addition, the GI50 with CCRF-CEM leukemia was 0.18 µM and 1.49 µM; in the test with EKVX NSCLC it was 13 µM and 4.34 µM and > 10 µM; with A498 renal, 13.9 µM and 2.13 µM and > 10 µM; in the test on SF-268 CNS, 3.17 µM and 2.19 µM and 5.09 µM. Further, the total growth inhibition concentration (TGI) in the test on IGROV1 ovarian is 25.7 µM and 15.7 µM and > 10 µM; in the test on U251 CNS, 12.9 µM and 5.25 µM and > 10 µM; with NCI-H522 lung, 15.5 µM and 13.5 µM and > 10 µM; in the test with DU-145 prostate, 22.5 µM and 13.3 µM and > 10 µM; in the test on OVCAR-3 ovarian, 19.4 µM and 8.38 µM and > 10 µM; with OVCAR-8 ovarian it was 12.3 µM and 11.8 µM and > 10 µM. Further, the TGI was 18.6 µM and > 10 µM with CCRF-CEM leukemia; 34.9 µM and 21.6 µM and > 10 µM in the test with EKVX NSCLC; 28.4 µM and 11 µM and > 10 µM with A498 renal; 14.4 µM and 14.8 µM and > 10 µM in the test on SF-268 CNS.

On to `CC(=O)CC/C=C(\C)[C@H](O)[C@H](C)C(=O)O[C@H]1C[C@H](C)C=C2C=C[C@@]3(C)O[C@@H](O)CC(=O)[C@]3(C)[C@H]21`, for which the GI50 is 0.42 µM in the test with IGROV1 ovarian; 0.384 µM in the test with U251 CNS; 0.566 µM in the test on NCI-H522 lung; 0.332 µM with DU-145 prostate; 0.614 µM in the test on OVCAR-3 ovarian; 0.425 µM with OVCAR-8 ovarian. In addition, the GI50 with CCRF-CEM leukemia was 0.514 µM; in the test on EKVX NSCLC, 0.877 µM; with A498 renal, 2.55 µM; in the test on SF-268 CNS it was 0.612 µM. Further, the total growth inhibition concentration (TGI) with IGROV1 ovarian came to 3.42 µM; in the test on U251 CNS it was 2.8 µM; in the test with NCI-H522 lung, 4.19 µM; in the test on DU-145 prostate, 4.16 µM; in the test with OVCAR-3 ovarian, 3.52 µM; in the test on OVCAR-8 ovarian, 6 µM. In addition, the TGI amounted to 4.83 µM in the test with CCRF-CEM leukemia, 4.64 µM in the test with EKVX NSCLC, 7.95 µM in the test on A498 renal and 5.63 µM in the test on SF-268 CNS.

For the compound `N/N=C(\c1nc2ccc([N+](=O)[O-])cc2[nH]c1=O)C(O)c1ccc(Cl)c(Cl)c1` (stereo not given), the TGI with IGROV1 ovarian, in the test with U251 CNS, in the test on NCI-H522 lung, in the test with DU-145 prostate, in the test with OVCAR-3 ovarian and in the test on OVCAR-8 ovarian was more than 100 µM each time. For the same compound, the TGI in the test with CCRF-CEM leukemia, with EKVX NSCLC, in the test on A498 renal and in the test on SF-268 CNS was more than 100 µM throughout.

`O=C(c1ccccc1Cl)n1oc2ccccc2c1=O`: the TGI in the test on IGROV1 ovarian, with U251 CNS, in the test with NCI-H522 lung, in the test with DU-145 prostate, in the test on OVCAR-3 ovarian and in the test on OVCAR-8 ovarian was more than 100 µM throughout. In addition, the TGI with CCRF-CEM leukemia was 74 µM; with EKVX NSCLC it was more than 100 µM; in the test with A498 renal, more than 100 µM; in the test on SF-268 CNS, more than 100 µM.

On to `C#Cc1cccc(Nc2ncnc3ccc(OCCCCNCCS(C)(=O)=O)cc23)c1`, for which the GI50 in the test with IGROV1 ovarian is 2.12 µM; in the test on U251 CNS, 6.43 µM; with NCI-H522 lung, 2.97 µM; in the test with DU-145 prostate, 4.34 µM; in the test with OVCAR-3 ovarian it was 6.5 µM; in the test with OVCAR-8 ovarian, 7.56 µM. For the same compound, the GI50 was 7.65 µM with CCRF-CEM leukemia, 0.161 µM in the test with EKVX NSCLC, 3.18 µM with A498 renal and 6.13 µM in the test on SF-268 CNS. For the same compound, the TGI with IGROV1 ovarian was more than 16.3 µM; in the test with U251 CNS it was more than 23.3 µM; in the test on NCI-H522 lung, 7.86 µM; with DU-145 prostate, more than 25 µM; with OVCAR-3 ovarian, more than 23.6 µM; in the test on OVCAR-8 ovarian, more than 25 µM. In addition, the TGI with CCRF-CEM leukemia was more than 25 µM; with EKVX NSCLC it was more than 25 µM; in the test on A498 renal, 9.75 µM; in the test on SF-268 CNS, more than 23.7 µM.
